Laboratory results published in PubChem BioAssay AID264 (DTP/NCI, 2004).
Values joined by “and” are separate entries in the source; they are usually repeats but may differ in a detail not shown here. Identical values can stand only once. Results filed as inconclusive are left out.

Tested on: nude mice, LX-1 lung xenograft intrarenal, tumor weight T/C
Test: NCI In Vivo Anticancer Drug Screen. Data for tumor model Human Lung LX-1 Xenograft (intrarenal inoculation) in NU/NU Swiss (nude) mice
Conditions: endpoint: mean tumor weight change, higher = larger tumour
Summary of the method: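 Readout: T/C, i.e. treated-group tumor measurement over vehicle-control measurement. Mice bearing transplantable tumors were dosed with compound or vehicle.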

[1] = dose: 100.0 mg/kg/injection, schedule: Q01DX010 (sc), vehicle: saline
[2] = dose: 200.0 mg/kg/injection, schedule: Q04DX003 (sc), vehicle: saline with Tween-80
[3] = dose: 400.0 mg/kg/injection, schedule: Q04DX003 (sc), vehicle: saline with Tween-80
[4] = dose: 800.0 mg/kg/injection, schedule: Q04DX003 (sc), vehicle: saline with Tween-80

## CCC1CN2C(=N1)c1ccccc1-c1cc(Cl)ccc12 (stereo not drawn)
dose: 12.5 mg/kg/injection, schedule: Q01DX010 (sc), vehicle: saline with Tween-80
  T/C: 54 % of control
dose: 25.0 mg/kg/injection, schedule: Q01DX010 (sc), vehicle: saline with Tween-80
  T/C: 60 % of control
dose: 50.0 mg/kg/injection, schedule: Q01DX010 (sc), vehicle: saline with Tween-80
  T/C: 107 % of control

## COc1ccc2c(c1)CCC(c1ccccc1)=C2c1ccc(OCCN2CCCC2)cc1
dose: 100.0 mg/kg/injection, schedule: Q04DX003 (sc), vehicle: Klucel (hydroxypropylcellulose) (HPC)
  T/C: 116 % of control
dose: 200.0 mg/kg/injection, schedule: Q04DX003 (sc), vehicle: Klucel (hydroxypropylcellulose) (HPC)
  T/C: 85 % of control
dose: 400.0 mg/kg/injection, schedule: Q04DX003 (sc), vehicle: Klucel (hydroxypropylcellulose) (HPC)
  T/C: 57 % of control
dose: 800.0 mg/kg/injection, schedule: Q04DX003 (sc), vehicle: Klucel (hydroxypropylcellulose) (HPC)
  T/C: 101 % of control

## Nc1ncnc2c1ncn2C1OC(COP(=O)(O)O)C(O)C1O (stereo not drawn)
[1]
  T/C: 38 % of control
dose: 200.0 mg/kg/injection, schedule: Q01DX010 (sc), vehicle: saline
  T/C: 78 % of control
dose: 400.0 mg/kg/injection, schedule: Q01DX010 (sc), vehicle: saline
  T/C: 59 % of control
dose: 800.0 mg/kg/injection, schedule: Q01DX010 (sc), vehicle: saline
  T/C: 67 % of control

## C(CSC1=NCCN1)CSC1=NCCN1
dose: 50.0 mg/kg/injection, schedule: Q01DX010 (sc), vehicle: saline
  T/C: 156 % of control
[1]
  T/C: 81 % of control

## C/C=C1\C[C@@H]2C(OC)Nc3cc(O)c(OC)cc3C(=O)N2C1 (stereo partly drawn)
dose: 0.5 mg/kg/injection, schedule: Q04DX003 (sc), vehicle: saline
  T/C: 93 % of control
dose: 1.0 mg/kg/injection, schedule: Q04DX003 (sc), vehicle: saline
  T/C: 111 % of control
dose: 2.0 mg/kg/injection, schedule: Q04DX003 (sc), vehicle: saline
  T/C: 107 % of control
dose: 4.0 mg/kg/injection, schedule: Q04DX003 (sc), vehicle: saline
  T/C: 96 % of control

## N#CC(=C1C=CC(=NO)C=C1)c1ccc(Cl)cc1
dose: 150.0 mg/kg/injection, schedule: Q04DX003 (sc), vehicle: saline with Tween-80
  T/C: 173 % of control
dose: 1200.0 mg/kg/injection, schedule: Q04DX003 (sc), vehicle: saline with Tween-80
  T/C: 175 % of control and 198 % of control
dose: 2400.0 mg/kg/injection, schedule: Q04DX003 (sc), vehicle: saline with Tween-80
  T/C: 180 % of control

## COc1ccc(C(=O)c2no[n+]([O-])c2C(=O)c2ccc(OC)cc2)cc1
dose: 100.0 mg/kg/injection, schedule: Q04DX003 (sc), vehicle: saline with Tween-80
  T/C: 84 % of control
[2]
  T/C: 91 % of control
[3]
  T/C: 99 % of control
[4]
  T/C: 109 % of control

## N[C@H](C(=O)O)[C@@H]1CC(Cl)=NO1
dose: 2.0 mg/kg/injection, schedule: Q01DX010 (sc), vehicle: saline
  T/C: 16 % of control
dose: 2.0 mg/kg/injection, schedule: Q01DX010 (sc), vehicle: suspension in saline
  T/C: 30 % of control
dose: 4.0 mg/kg/injection, schedule: Q01DX010 (sc), vehicle: suspension in saline
  T/C: 33 % of control
dose: 8.0 mg/kg/injection, schedule: Q01DX010 (sc), vehicle: suspension in saline
  T/C: 45 % of control
dose: 16.0 mg/kg/injection, schedule: Q01DX010 (sc), vehicle: suspension in saline
  T/C: 15 % of control

## CC12CC(C(=O)O)C3(O)CC(C)(C1)CC(C)(C2)C3 (stereo not drawn) (tested in a mixture with another compound)
dose: 300.0 mg/kg/injection, schedule: Q04DX003 (sc), vehicle: Klucel (hydroxypropylcellulose) (HPC)
  T/C: 86 % of control
dose: 600.0 mg/kg/injection, schedule: Q04DX003 (sc), vehicle: Klucel (hydroxypropylcellulose) (HPC)
  T/C: 57 % of control
dose: 1200.0 mg/kg/injection, schedule: Q04DX003 (sc), vehicle: Klucel (hydroxypropylcellulose) (HPC)
  T/C: 105 % of control
dose: 2400.0 mg/kg/injection, schedule: Q04DX003 (sc), vehicle: Klucel (hydroxypropylcellulose) (HPC)
  T/C: 105 % of control

## C[C@]12CC[C@@H]3c4ccc(OC(=O)Cc5ccc(N(CCCl)CCCl)cc5)cc4CC[C@H]3[C@@H]1CC[C@@H]2OC(=O)Cc1ccc(N(CCCl)CCCl)cc1
[2]
  T/C: 83 % of control
[3]
  T/C: 107 % of control
[4]
  T/C: 116 % of control
dose: 1600.0 mg/kg/injection, schedule: Q04DX003 (sc), vehicle: saline with Tween-80
  T/C: 90 % of control

## [Cl][Pt+2][Cl].[NH-]CC1(C[NH-])CCC1
dose: 50.0 mg/kg/injection, schedule: Q04DX003 (sc), vehicle: suspension in saline
  T/C: 121 % of control
